Results reported in PubChem BioAssay AID588657 (The Scripps Research Institute Molecular Screening Center, 2011).
The source made the active and inactive calls.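 How the source made its calls: active means EGR1 protein level shifted at least 30% up or down versus solvent-only cells; inactive means shift under 30% either way.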

These molecules were tested against Early growth response protein 1 (Homo sapiens) (UniProt P18146) (assay: EGR1 protein level change in HT29 cells, late-stage follow-up, counter-screen for KLF5 inhibitor project, cell-based, HT29 colorectal carcinoma, chemiluminescent western blot (AID 588657)). Conditions: 24 h, at 10 µM, active compounds read high.
Chain of Early growth response protein 1 (Homo sapiens) (P18146 whole entry, looked up): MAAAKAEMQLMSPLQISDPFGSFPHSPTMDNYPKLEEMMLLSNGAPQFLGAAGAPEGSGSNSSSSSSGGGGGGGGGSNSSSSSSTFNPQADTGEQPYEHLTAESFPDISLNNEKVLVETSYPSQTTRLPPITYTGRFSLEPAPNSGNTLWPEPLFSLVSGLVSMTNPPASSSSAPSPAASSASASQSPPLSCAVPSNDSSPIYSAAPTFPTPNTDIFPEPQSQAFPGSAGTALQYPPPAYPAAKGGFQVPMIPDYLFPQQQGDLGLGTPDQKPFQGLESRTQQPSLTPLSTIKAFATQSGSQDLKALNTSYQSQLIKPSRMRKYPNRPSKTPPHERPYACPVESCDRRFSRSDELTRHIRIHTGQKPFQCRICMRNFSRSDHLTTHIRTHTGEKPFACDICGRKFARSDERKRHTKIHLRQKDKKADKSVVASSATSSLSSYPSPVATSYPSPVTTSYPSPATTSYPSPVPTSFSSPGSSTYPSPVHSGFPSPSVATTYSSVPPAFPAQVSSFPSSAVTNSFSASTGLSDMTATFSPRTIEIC
CN(C(=O)CNC(=O)/C=C/c1cccc(Cl)c1)C1CCS(=O)(=O)C1 (stereo not drawn) was tested, and the inhibition was 9.34% (inactive). An inhibition of 29.7% was found for CN(C(=O)COC(=O)/C=C/c1cccc([N+](=O)[O-])c1)C1CCS(=O)(=O)C1 (stereo not drawn) in this work. An inhibition of 64.5% was found for CN(C(=O)CNC(=O)/C=C/c1cccc(Cl)c1)C1CCS(=O)(=O)CC1 in this work.
